# Reference: patent publication US10517889B2, “Modulators of SMAD7 expression” (Ionis Pharmaceuticals, Inc., priority 2017, dated 2019)
# Strand notation (5' to 3'): a small letter for the sugar, then the base; units joined by * are phosphorothioate-linked, units joined directly phosphodiester-linked; [ ] holds rarer units or linkages, { } end groups; capitals alone tell only the bases. k = constrained ethyl (cEt); [5mC] = 5-methylcytosine; d = 2'-deoxy (DNA)
# Tested on: human SMAD7 mRNA
# Experiment: Antisense inhibition of human SMAD7 mRNA expression in Hep3B cells by 3-10-3 cEt gapmers, 10,000 nM, electroporation (Example 2)
# Format: cell-based
# Details: Hep3B cells, 10,000 nM antisense oligonucleotide, electroporation, approximately 24 hours, RT-PCR primer probe set RTS5062, relative to untreated control cells
# Method in brief: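 Hep3B, 20,000 cells/well; electroporation, 10,000 nM ASO; ~24 h. Readout: SMAD7 mRNA by qRT-PCR (RTS5062), RIBOGREEN-normalised; % inhibition vs untreated.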
row,Substance,% Inhibition [%]
1,800011 (k[5mC]*kT*kT*d[5mC]*dA*dG*d[5mC]*d[5mC]*dT*dG*dT*dG*dT*kT*kT*kG; antisense) [compound 800011],21
2,799875 (kG*kT*kG*d[5mC]*dA*dG*dA*d[5mC]*dT*dG*dG*dA*dA*kA*kA*kG; antisense) [compound 799875],41
3,799898 (antisense kG*kT*k[5mC]*dT*d[5mC]*dT*dT*dA*d[5mC]*d[5mC]*dT*d[5mC]*dA*k[5mC]*k[5mC]*k[5mC]) [compound 799898],37
4,800094 (antisense kA*kT*kG*dG*dA*dA*d[5mC]*d[5mC]*dT*dT*dG*dA*dA*kG*kG*k[5mC]) [compound 800094],49
5,799896 (antisense k[5mC]*kT*kT*dA*d[5mC]*d[5mC]*dT*d[5mC]*dA*d[5mC]*d[5mC]*d[5mC]*dA*k[5mC]*k[5mC]*kT) [compound 799896],36
6,799894 (antisense kT*k[5mC]*k[5mC]*d[5mC]*dA*dA*d[5mC]*dT*dG*dG*dG*d[5mC]*dA*kG*k[5mC]*kT) [compound 799894],2
7,799899 (antisense kA*kA*kG*dT*d[5mC]*dT*d[5mC]*dT*dT*dA*d[5mC]*d[5mC]*dT*k[5mC]*kA*k[5mC]) [compound 799899],33

# Same assay, conditions: Hep3B cells, electroporation with 10,000 nM antisense oligonucleotide, approximately 24 hours, RTS5062, percent inhibition of SMAD7 mRNA relative to untreated control cells
row,Substance,% Inhibition [%]
1,799763 (antisense kT*kG*kT*d[5mC]*d[5mC]*dT*dA*dA*dA*dG*dA*d[5mC]*dG*kG*k[5mC]*kT) [compound 799763],50
2,799685 (antisense kG*kA*kT*dT*dT*dT*dA*dA*dA*dT*dG*d[5mC]*dT*kG*kT*k[5mC]) [compound 799685],25
3,799531 (k[5mC]*kT*kT*dT*dA*dG*d[5mC]*dA*dA*dT*dT*dT*d[5mC]*kA*kA*kA; antisense) [compound 799531],32
4,799533 (kG*kA*kA*dT*dG*dA*dA*dG*dT*d[5mC]*d[5mC]*dA*dG*kA*k[5mC]*k[5mC]; antisense) [compound 799533],50
5,799643 (kG*kT*kG*dA*dT*d[5mC]*d[5mC]*d[5mC]*d[5mC]*dG*dG*dA*dA*kA*kG*k[5mC]; antisense) [compound 799643],26
6,799830 (antisense kG*kA*kA*dG*dA*dG*dT*dT*dT*dG*d[5mC]*dG*dA*kG*k[5mC]*k[5mC]) [compound 799830],55

# Same assay, conditions: Hep3B cells, electroporation with 10,000 nM antisense oligonucleotide, approximately 24 hours, SMAD7 mRNA by RT-PCR (RTS5062), relative to untreated control cells
row,Substance,% Inhibition [%]
1,799969 (kT*kT*kA*dG*dA*dG*dT*dG*dA*dG*dT*dT*d[5mC]*k[5mC]*kT*k[5mC]; antisense) [compound 799969],46
2,799962 (antisense k[5mC]*k[5mC]*kA*dA*d[5mC]*d[5mC]*d[5mC]*d[5mC]*dA*dG*dA*dG*dG*kT*kG*kA) [compound 799962],0
3,798865 (kG*kG*kA*dG*dT*d[5mC]*d[5mC]*dG*dG*dG*dT*dT*dG*kT*k[5mC]*k[5mC]; antisense) [compound 798865],8
4,798769 (k[5mC]*k[5mC]*kT*dG*dA*dG*dA*dT*d[5mC]*d[5mC]*dG*dG*d[5mC]*k[5mC]*kA*k[5mC]; antisense) [compound 798769],58
5,798722 (antisense k[5mC]*kT*kT*dG*d[5mC]*d[5mC]*d[5mC]*dA*dG*dG*d[5mC]*dA*dG*k[5mC]*kA*kT) [compound 798722],0
6,798684 (antisense k[5mC]*kG*kT*dT*dT*dG*d[5mC]*d[5mC]*dT*dG*d[5mC]*dT*dA*kA*kG*kG) [compound 798684],51
7,799356 (kG*kA*kA*dA*dA*dA*dT*dT*d[5mC]*dA*d[5mC]*d[5mC]*dA*kA*kA*k[5mC]; antisense) [compound 799356],23
8,800067 (antisense kA*kG*kG*dA*d[5mC]*d[5mC]*dT*dG*dG*dG*dA*dA*d[5mC]*k[5mC]*k[5mC]*kA) [compound 800067],51
9,798843 (k[5mC]*kT*kG*d[5mC]*dA*d[5mC]*d[5mC]*dA*dG*d[5mC]*dT*dG*dA*k[5mC]*kT*k[5mC]; antisense) [compound 798843],37
10,790497 (kG*kT*kT*d[5mC]*dG*d[5mC]*dA*dG*dA*dG*dT*d[5mC]*dG*kG*k[5mC]*kT; antisense) [compound 790497],23
11,799903 (antisense kT*kG*k[5mC]*dA*dT*dG*dG*d[5mC]*dA*dT*dT*dG*dT*k[5mC]*kT*kG) [compound 799903],34
12,830159 (antisense k[5mC]*k[5mC]*kA*d[5mC]*dT*dA*dA*dA*dT*dT*dG*dA*dG*kA*kA*k[5mC]) [compound 830159],42
13,799474 (antisense k[5mC]*kA*kA*dG*dA*dG*dT*d[5mC]*d[5mC]*dA*dG*d[5mC]*d[5mC]*k[5mC]*kT*kA) [compound 799474],39
14,799868 (k[5mC]*kA*kT*dA*dA*dA*d[5mC]*dA*dT*dG*dG*dG*d[5mC]*kT*k[5mC]*k[5mC]; antisense) [compound 799868],34
15,798923 (kT*kT*kG*dA*dA*dG*dT*dG*dT*dG*dG*d[5mC]*d[5mC]*kT*kG*k[5mC]; antisense) [compound 798923],54

# Same assay, conditions: Hep3B cells, electroporation with 10,000 nM antisense oligonucleotide, approximately 24 hours, primer probe set RTS5062, relative to untreated control cells
Substance,% inhibition of SMAD7 mRNA expression [%],% Inhibition [%]
799343 (kA*k[5mC]*kT*dA*dA*dT*d[5mC]*dT*dA*d[5mC]*dA*dG*dA*k[5mC]*kT*kT; antisense) [compound 799343],53,–
799111 (antisense kA*kG*k[5mC]*dA*dG*dG*d[5mC]*dA*dG*dT*dG*d[5mC]*dT*kG*kA*kG) [compound 799111],50,–
799088 (antisense kG*k[5mC]*kT*dG*d[5mC]*d[5mC]*d[5mC]*d[5mC]*dG*dG*d[5mC]*dA*dG*k[5mC]*k[5mC]*k[5mC]) [compound 799088],24,–
799362 (k[5mC]*kA*kT*d[5mC]*dA*dA*d[5mC]*d[5mC]*dA*dG*dT*d[5mC]*d[5mC]*kT*kA*kT; antisense) [compound 799362],39,–
798661 (kG*kG*k[5mC]*dT*dG*d[5mC]*d[5mC]*d[5mC]*d[5mC]*dA*d[5mC]*d[5mC]*d[5mC]*k[5mC]*kG*k[5mC]; antisense) [compound 798661],52,–
798937 (antisense kG*kT*kT*dT*dG*d[5mC]*dA*dT*dG*dA*dA*dA*dA*kG*k[5mC]*kA) [compound 798937],–,35
799127 (antisense kA*kG*kG*dG*dA*d[5mC]*dA*dT*d[5mC]*d[5mC]*d[5mC]*d[5mC]*dG*k[5mC]*kT*kT) [compound 799127],67,–
798765 (kA*kA*k[5mC]*dA*d[5mC]*dT*dT*dT*dG*d[5mC]*dA*d[5mC]*dA*kG*k[5mC]*kA; antisense) [compound 798765],63,–
799420 (antisense k[5mC]*kA*kA*dG*dA*d[5mC]*d[5mC]*dA*dA*dA*dA*dA*dT*kT*k[5mC]*kA) [compound 799420],32,–

# Same assay, conditions: Hep3B cells, electroporation, 10,000 nM antisense oligonucleotide, approximately 24 hours, RTS5062, relative to untreated control cells
row,Substance,% inhibition of SMAD7 mRNA expression [%]
1,799518 (antisense kA*k[5mC]*kT*dT*dA*dA*dG*dT*dA*dG*dA*dG*d[5mC]*kA*kA*kA) [compound 799518],38
2,799796 (k[5mC]*kA*kT*dT*dA*dG*dA*dT*dA*d[5mC]*dT*dG*dT*k[5mC]*kT*kT; antisense) [compound 799796],43
3,799282 (antisense kA*k[5mC]*kA*dG*dA*d[5mC]*d[5mC]*dA*d[5mC]*dA*dG*d[5mC]*dA*k[5mC]*k[5mC]*kT) [compound 799282],16
4,799557 (kA*kG*k[5mC]*d[5mC]*dA*dG*dT*dT*d[5mC]*dT*dT*dA*dG*kA*kA*kA; antisense) [compound 799557],28

# Same assay, conditions: SMAD7 mRNA, Hep3B cells, 10,000 nM antisense oligonucleotide, electroporation, approximately 24 hours, primer probe set RTS5062, relative to untreated control cells
row,Substance,% Inhibition [%]
1,800843 (antisense kT*k[5mC]*kG*dG*d[5mC]*d[5mC]*dA*d[5mC]*dA*d[5mC]*dA*d[5mC]*d[5mC]*kT*k[5mC]*kA) [compound 800843],32
2,772604 (kA*kT*kT*d[5mC]*d[5mC]*d[5mC]*d[5mC]*dT*dG*dA*dG*dG*dT*kA*kG*kA; antisense) [compound 772604],48
3,829789 (kA*k[5mC]*kT*dT*d[5mC]*d[5mC]*dG*dA*dG*dG*dA*dA*dT*kG*k[5mC]*k[5mC]; antisense) [compound 829789],42
4,829774 (antisense kA*kG*kT*dA*dG*dG*dA*d[5mC]*dG*dA*dG*dG*dG*k[5mC]*kG*kG) [compound 829774],22
5,829756 (antisense k[5mC]*k[5mC]*kG*dT*d[5mC]*dG*d[5mC]*d[5mC]*d[5mC]*d[5mC]*dT*dT*d[5mC]*kT*k[5mC]*k[5mC]) [compound 829756],42
6,829728 (antisense kG*kG*k[5mC]*dG*d[5mC]*dA*dG*dG*d[5mC]*dG*dA*d[5mC]*dA*kG*k[5mC]*kA) [compound 829728],44

# Same assay, conditions: SMAD7 mRNA, Hep3B cells, electroporation with 10,000 nM antisense oligonucleotide, approximately 24 hours, primer probe set RTS5062, relative to untreated control cells
row,Substance,% Inhibition [%]
1,829899 (antisense kA*k[5mC]*kG*dG*dG*d[5mC]*dA*dG*d[5mC]*dT*dG*d[5mC]*dT*kG*kA*kT) [compound 829899],20
2,829932 (kT*kG*kA*dT*dA*dA*d[5mC]*dA*d[5mC]*d[5mC]*d[5mC]*dA*dT*kA*kG*kA; antisense) [compound 829932],41
